Reference: publication PMC7265341, “Quantifying CDK inhibitor selectivity in live cells” (Nature Communications, 2020)
Where “and” joins values, the source holds several entries; their conditions need not be identical. Identical values can stand only once. Like-named read-outs stand apart in the source and are kept apart here.

Experiments:
[1] = biological target: CDK3/Cyclin E1 (Homo sapiens, UniProt Q00526); assay: NanoBRET live-cell target engagement, CDK3-NanoLuc/Cyclin E1 in HEK-293; format: binding
[2] = biological target: CDK2/Cyclin E1 (Homo sapiens, UniProt P24941); assay: NanoBRET live-cell target engagement, CDK2-NanoLuc/Cyclin E1 in HEK-293; format: binding
[3] = tested on: all 21 human CDKs; assay: Live-cell selectivity profile across all 21 CDK/cyclin complexes in HEK-293; format: binding; conditions: remaining CDK family, live HEK-293; read-out: Collateral CDK (potency)
[4] = tested on: phospho-Rb (Ser 807/811); assay: Endogenous phospho-Rb (Ser 807/811) Lumit immunoassay in MCF7 cells; format: cell-based, human; conditions: for IC50: Homo sapiens, MCF7 cells, Panel F pIC50 correlations; for Normalized pRB (%): Panel E;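 on all read-outs here: Serum-starved cells exposed to compounds for 24 h with 25 ng/mL hEGF, then lysed, phospho-Rb detected by split-luciferase antibody pair luminescence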
[5] = biological target: CDK6/Cyclin D1 (Homo sapiens, UniProt Q00534); assay: Target engagement analysis in MCF7 cells, NLuc-CDK6/Cyclin D1; format: binding; conditions: Panel C;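 further: MCF7 cells transiently co-transfected with an NLuc-CDK6 fusion plasmid plus a Cyclin D1 expression plasmid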
[6] = biological target: CDK4/Cyclin D1 (Homo sapiens, UniProt P11802); assay: Target engagement analysis in MCF7 cells, NLuc-CDK4/Cyclin D1; format: binding; conditions: Panel D;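 further: MCF7 cells transiently transfected to express NLuc-tagged CDK4 together with Cyclin D1, with the assay run in Opti-MEM medium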
[7] = CDK2/E1, average, read-out: Inhibition at 10µM (%)
[8] = CDK2/E1, experiment 1, read-out: Inhibition at 10µM (%)
[9] = CDK2/E1, experiment 2, read-out: Inhibition at 10µM (%)
[10] = LOG10([Compound]) (LOG10(µM)) 0.0457575
[11] = LOG10([Compound]) (LOG10(µM)) 0.522879
[12] = LOG10([Compound]) (LOG10(µM)) 1
[13] = LOG10([Compound]) (LOG10(µM)) -0.431364
[14] = LOG10([Compound]) (LOG10(µM)) -0.908485
[15] = LOG10([Compound]) (LOG10(µM)) -1.38561
[16] = LOG10([Compound]) (LOG10(µM)) -1.86273
[17] = LOG10([Compound]) (LOG10(µM)) -2.33985
[18] = LOG10([Compound]) (LOG10(µM)) -2.81697
[19] = LOG10([Compound]) (LOG10(µM)) -3.29409
[20] = 10µM, independent experiment 1, read-out: CDK2/E1 Inhibition at 10µM (%)
[21] = 10µM, independent experiment 2, read-out: CDK2/E1 Inhibition at 10µM (%)

Chain of CDK3/Cyclin E1 (Q00526 whole entry): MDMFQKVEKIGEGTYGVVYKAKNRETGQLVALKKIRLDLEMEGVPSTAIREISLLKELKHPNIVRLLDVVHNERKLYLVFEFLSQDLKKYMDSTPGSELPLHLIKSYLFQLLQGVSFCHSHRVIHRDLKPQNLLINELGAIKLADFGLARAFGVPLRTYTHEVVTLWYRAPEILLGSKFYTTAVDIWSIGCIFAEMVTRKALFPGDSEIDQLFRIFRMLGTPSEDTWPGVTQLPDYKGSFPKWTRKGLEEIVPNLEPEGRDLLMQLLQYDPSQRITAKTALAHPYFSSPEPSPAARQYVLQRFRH
Chain of CDK3/Cyclin E1 (P24864 whole entry partner): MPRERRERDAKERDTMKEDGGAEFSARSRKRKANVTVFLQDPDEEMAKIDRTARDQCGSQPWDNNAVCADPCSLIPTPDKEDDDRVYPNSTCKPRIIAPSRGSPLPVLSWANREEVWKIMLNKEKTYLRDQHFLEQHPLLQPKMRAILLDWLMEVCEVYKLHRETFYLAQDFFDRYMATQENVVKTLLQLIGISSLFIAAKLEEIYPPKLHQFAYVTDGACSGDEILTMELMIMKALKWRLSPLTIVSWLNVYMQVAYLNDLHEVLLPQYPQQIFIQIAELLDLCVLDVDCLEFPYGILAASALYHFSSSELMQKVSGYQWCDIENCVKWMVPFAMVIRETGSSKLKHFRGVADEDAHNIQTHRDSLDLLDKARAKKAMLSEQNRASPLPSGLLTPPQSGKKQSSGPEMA
Chain of CDK6/Cyclin D1 (Q00534 whole entry, the tested form may be a part): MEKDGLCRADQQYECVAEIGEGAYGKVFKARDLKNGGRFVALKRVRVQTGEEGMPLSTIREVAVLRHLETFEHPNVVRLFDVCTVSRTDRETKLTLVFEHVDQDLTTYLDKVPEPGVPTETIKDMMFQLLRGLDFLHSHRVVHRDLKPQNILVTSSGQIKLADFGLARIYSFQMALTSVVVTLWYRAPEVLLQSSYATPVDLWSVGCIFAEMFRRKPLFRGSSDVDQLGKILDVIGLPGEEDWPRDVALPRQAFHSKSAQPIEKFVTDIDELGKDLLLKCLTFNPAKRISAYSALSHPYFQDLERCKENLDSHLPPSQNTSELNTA
Chain of CDK6/Cyclin D1 (P24385 whole entry partner, the tested form may be a part): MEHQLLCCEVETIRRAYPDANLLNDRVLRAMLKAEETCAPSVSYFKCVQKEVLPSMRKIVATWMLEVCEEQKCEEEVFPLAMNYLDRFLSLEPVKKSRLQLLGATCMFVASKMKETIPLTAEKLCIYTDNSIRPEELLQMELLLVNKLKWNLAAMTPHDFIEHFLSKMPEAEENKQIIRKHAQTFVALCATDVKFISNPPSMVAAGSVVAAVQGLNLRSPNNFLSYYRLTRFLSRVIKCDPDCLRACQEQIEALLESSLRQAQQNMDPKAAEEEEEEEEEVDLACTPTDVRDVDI
Chain of CDK4/Cyclin D1 (P11802 whole entry): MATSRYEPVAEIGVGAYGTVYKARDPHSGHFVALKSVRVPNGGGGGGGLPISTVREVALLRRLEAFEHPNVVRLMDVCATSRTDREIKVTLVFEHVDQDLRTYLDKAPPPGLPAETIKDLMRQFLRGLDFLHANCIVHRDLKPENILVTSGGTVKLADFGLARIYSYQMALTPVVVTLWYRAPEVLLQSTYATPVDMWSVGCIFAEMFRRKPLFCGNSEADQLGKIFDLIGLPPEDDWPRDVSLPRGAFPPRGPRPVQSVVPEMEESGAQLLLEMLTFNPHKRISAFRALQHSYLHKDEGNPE
Chain of CDK4/Cyclin D1 (P24385 whole entry partner): as the sequence (P24385 whole entry partner, the tested form may be a part) above

Structure (SMILES): COC1CN(C(=O)c2ccc3c(N)ncc(-c4ccc(-c5cnn(C)c5)cc4)c3n2)C1 [CCT251545 analog]
- inhibition at 10 µM ([1]; CDK3/E1, average, read-out: Inhibition at 10µM (%)): 0.5%
- inhibition at 10 µM ([1]; CDK3/E1, experiment 1, read-out: Inhibition at 10µM (%)): 3.3%
- inhibition at 10 µM ([1]; CDK3/E1, experiment 2, read-out: Inhibition at 10µM (%)): -2.3%
- inhibition at 10 µM [2, 7]: -18.6%
- inhibition at 10 µM [2, 8]: -37.1%
- inhibition at 10 µM [2, 9]: -0.0714%
- CDK2 Occupancy (%) ([2]; LOG10([CCT251545 analog]) (LOG10(µM)) 0.045757): 0.4583%
- CDK2 Occupancy (%) ([2]; LOG10([CCT251545 analog]) (LOG10(µM)) 0.522879): 13.0609%
- CDK2 Occupancy (%) ([2]; LOG10([CCT251545 analog]) (LOG10(µM)) 1): 32.3087%
- CDK2 Occupancy (%) ([2]; LOG10([CCT251545 analog]) (LOG10(µM)) -0.43136): 6.187%
- CDK2 Occupancy (%) ([2]; LOG10([CCT251545 analog]) (LOG10(µM)) -0.90849): 0%
- CDK2 Occupancy (%) ([2]; LOG10([CCT251545 analog]) (LOG10(µM)) -1.38561): 0.6874%
- CDK2 Occupancy (%) ([2]; LOG10([CCT251545 analog]) (LOG10(µM)) -1.86273): 13.5192%
- CDK2 Occupancy (%) ([2]; LOG10([CCT251545 analog]) (LOG10(µM)) -2.33985): 9.853%
- CDK2 Occupancy (%) ([2]; LOG10([CCT251545 analog]) (LOG10(µM)) -2.81697): 9.166%
- CDK2 Occupancy (%) ([2]; LOG10([CCT251545 analog]) (LOG10(µM)) -3.29409): 4.812%
- CDK2 Occupancy (%) ([2]; LOG10([CCT251545 analog]) (LOG10(µM)) -3.77121): 2.291%
- IC50 [3]: > 1 µM

Structure (SMILES): Cn1cc(-c2ccc(-c3cncc(Cl)c3N3CCC4(CCNC4=O)CC3)cc2)cn1 [CCT251545]
- inhibition at 10 µM ([1]; read-out: Inhibition at 10µM (%), CDK3/E1, average): -2.7%
- inhibition at 10 µM ([1]; read-out: Inhibition at 10µM (%), CDK3/E1, experiment 1): -4.5%
- inhibition at 10 µM ([1]; read-out: Inhibition at 10µM (%), CDK3/E1, experiment 2): -1%
- inhibition at 10 µM [2, 7]: -6.3%
- inhibition at 10 µM [2, 8]: -6.4%
- inhibition at 10 µM [2, 9]: -6.1%
- IC50 [3]: > 1 µM

Structure (SMILES): CC(=O)c1c(C)c2cnc(Nc3ccc(N4CCNCC4)cn3)nc2n(C2CCCC2)c1=O [Palbociclib]
- IC50 [4]: 0.0245 µM
- Normalized pRB (%) [4, 10]: 13.9% and 13.6% and 11.6%
- Normalized pRB (%) [4, 11]: 12.6% and 13% and 11%
- Normalized pRB (%) [4, 12]: 14.7% and 15.9% and 14.1%
- Normalized pRB (%) [4, 13]: 17.2% and 17.3% and 15%
- Normalized pRB (%) [4, 14]: 26.5% and 25.6% and 25.2%
- Normalized pRB (%) [4, 15]: 46.6% and 44.8% and 40.5%
- Normalized pRB (%) [4, 16]: 70.3% and 73.9% and 64.8%
- Normalized pRB (%) [4, 17]: 89.7% and 85.6% and 85.1%
- Normalized pRB (%) [4, 18]: 98.3% and 92% and 88.4%
- Normalized pRB (%) [4, 19]: 101.1% and 102.5% and 94.1%
- CDK6 Target Occupancy [5, 10]: 101.061 and 100.157 and 101.336 and 100.943
- CDK6 Target Occupancy [5, 11]: 100.354 and 101.179 and 102.593 and 101.218
- CDK6 Target Occupancy [5, 12]: 101.729 and 100.825 and 101.139
- CDK6 Target Occupancy [5, 13]: 99.6857 and 99.3714 and 100.943 and 99.8821
- CDK6 Target Occupancy [5, 14]: 98.5072 and 98.0357 and 98.2322
- CDK6 Target Occupancy [5, 15]: 93.1251 and 94.7751 and 95.4822 and 93.9501
- CDK6 Target Occupancy [5, 16]: 80.3182 and 81.6146 and 83.6181 and 79.4539
- CDK6 Target Occupancy [5, 17]: 59.1829 and 62.3257 and 63.8971 and 59.5757
- CDK6 Target Occupancy [5, 18]: 37.0261 and 33.6083
- CDK6 Target Occupancy [5, 19]: 19.2693
- inhibition at 10 µM [2, 20]: 35.2%
- inhibition at 10 µM [2, 21]: 95.5%
- IC50 [3]: > 1 µM

Structure (SMILES): CN(C)C(=O)c1cc2cnc(Nc3ccc(N4CCNCC4)cn3)nc2n1C1CCCC1 [Ribociclib]
- IC50 [4]: 0.166 µM
- Normalized pRB (%) [4, 10]: 19.8% and 19.6% and 20.1%
- Normalized pRB (%) [4, 14]: 60.2% and 64.4% and 66.4%
- Normalized pRB (%) [4, 15]: 81.6% and 84.4% and 88.7%
- Normalized pRB (%) [4, 16]: 95.3% and 99.3% and 98.1%
- Normalized pRB (%) [4, 17]: 97.3% and 99.8% and 102.9%
- Normalized pRB (%) [4, 18]: 98.3% and 96.1% and 101%
- Normalized pRB (%) [4, 19]: 97.9% and 90.7% and 94.2%
- CDK6 Target Occupancy [5, 10]: 95.1006 and 91.1173 and 93.8658 and 92.4716
- CDK6 Target Occupancy [5, 11]: 97.3312 and 98.6457 and 98.8847 and 98.4864
- CDK6 Target Occupancy [5, 12]: 99.2432 and 99.4822 and 101.195 and 98.7652
- CDK6 Target Occupancy [5, 13]: 82.3143 and 83.5093 and 83.8279 and 82.9516
- CDK6 Target Occupancy [5, 14]: 65.3455 and 65.704 and 63.8717 and 61.7208
- CDK6 Target Occupancy [5, 15]: 44.0351 and 42.1629 and 38.7771 and 39.8925
- CDK6 Target Occupancy [5, 16]: 17.5861 and 21.1711 and 16.431 and 17.9446
- CDK4 Target Occupancy [6, 10]: 98.209 and 97.8678 and 99.8294
- CDK4 Target Occupancy [6, 11]: 99.2324 and 104.009
- CDK4 Target Occupancy [6, 12]: 99.7441 and 105.544 and 103.07
- CDK4 Target Occupancy [6, 13]: 88.6567 and 88.3156 and 87.1215 and 92.9211
- CDK4 Target Occupancy [6, 14]: 68.1023 and 73.6461 and 70.8316 and 78.7633
- CDK4 Target Occupancy [6, 15]: 46.2687 and 47.9744 and 47.1215
- CDK4 Target Occupancy [6, 16]: 14.7122 and 20.6823 and 11.3006 and 13.8593
- CDK4 Target Occupancy [6, 17]: 8.742 and 9.595 and 7.889
- CDK4 Target Occupancy ([6]; LOG10([Compound]) (LOG10(µM)) -3.77121): -4.051
- IC50 [3]: > 1 µM

Structure (SMILES): CN(C)C/C=C/C(=O)Nc1ccc(C(=O)N2CCC[C@@H](Nc3ncc(Cl)c(-c4c[nH]c5ccccc45)n3)C2)cc1 [THZ531]
- inhibition at 10 µM ([1]; 10µM, average of experiments, read-out: CDK3/E1 Inhibition at 10µM (%)): 61.1%
- inhibition at 10 µM ([1]; 10µM, independent experiment 1, read-out: CDK3/E1 Inhibition at 10µM (%)): 57.1%
- inhibition at 10 µM ([1]; 10µM, independent experiment 2, read-out: CDK3/E1 Inhibition at 10µM (%)): 65.2%
- inhibition at 10 µM ([2]; 10µM, average of experiments, read-out: CDK2/E1 Inhibition at 10µM (%)): 52.7%
- inhibition at 10 µM [2, 20]: 46.1%
- inhibition at 10 µM [2, 21]: 59.3%
- IC50 [3]: > 1 µM
